Experimental data published in PMC7719162, “Positioning of an unprecedented spiro[5.5]undeca ring system into kinase inhibitor space” (Scientific Reports, 2020).
Like-named read-outs stand apart in the source and are kept apart here.

Experiments:
CDK3/cyclin E = biological target: T1, CDK3/cyclin E (Homo sapiens, UniProt Q00526); conditions: cited from earlier work
T1 construct: purchased Reaction Biology Corp

JNK3 = biological target: T2, JNK3 (Homo sapiens, UniProt P53779); conditions: cited from earlier work
T2 construct: purchased Reaction Biology Corp

MST3/STK24 [1] = biological target: T3, MST3/STK24 (Homo sapiens, UniProt Q9Y6E0); conditions: cited from earlier work
T3 construct: purchased Reaction Biology Corp

RIPK5 = biological target: T4, RIPK5 (Homo sapiens, UniProt Q6XUX3); conditions: cited from earlier work
T4 construct: purchased Reaction Biology Corp
T4 sequence (Q6XUX3 1-929): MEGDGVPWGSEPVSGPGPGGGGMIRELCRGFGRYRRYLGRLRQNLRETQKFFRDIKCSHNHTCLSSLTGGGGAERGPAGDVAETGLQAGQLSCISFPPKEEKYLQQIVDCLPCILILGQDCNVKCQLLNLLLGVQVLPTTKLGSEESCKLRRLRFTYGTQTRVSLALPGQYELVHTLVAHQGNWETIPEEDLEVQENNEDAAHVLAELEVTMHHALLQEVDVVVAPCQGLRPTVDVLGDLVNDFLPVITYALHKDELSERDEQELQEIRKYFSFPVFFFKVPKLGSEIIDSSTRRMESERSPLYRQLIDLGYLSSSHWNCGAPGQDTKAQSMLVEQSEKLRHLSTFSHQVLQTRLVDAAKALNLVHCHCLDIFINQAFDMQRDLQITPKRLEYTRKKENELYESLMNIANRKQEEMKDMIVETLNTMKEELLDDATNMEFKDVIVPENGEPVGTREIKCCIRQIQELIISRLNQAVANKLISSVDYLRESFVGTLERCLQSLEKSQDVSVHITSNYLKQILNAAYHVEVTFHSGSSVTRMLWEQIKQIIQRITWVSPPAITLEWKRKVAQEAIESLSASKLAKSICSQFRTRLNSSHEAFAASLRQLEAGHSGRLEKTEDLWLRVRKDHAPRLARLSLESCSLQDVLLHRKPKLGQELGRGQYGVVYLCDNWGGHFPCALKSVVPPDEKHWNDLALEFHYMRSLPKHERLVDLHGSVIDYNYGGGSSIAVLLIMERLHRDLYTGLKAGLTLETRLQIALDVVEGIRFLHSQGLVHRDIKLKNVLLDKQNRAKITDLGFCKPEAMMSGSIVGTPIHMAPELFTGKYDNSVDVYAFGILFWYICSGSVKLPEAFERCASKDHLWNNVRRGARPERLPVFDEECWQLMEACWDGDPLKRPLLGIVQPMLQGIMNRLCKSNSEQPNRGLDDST

TLK1 = biological target: T5, TLK1 (Homo sapiens, UniProt Q9UKI8); conditions: cited from earlier work
T5 construct: purchased Reaction Biology Corp
T5 sequence (Q9UKI8 1-766): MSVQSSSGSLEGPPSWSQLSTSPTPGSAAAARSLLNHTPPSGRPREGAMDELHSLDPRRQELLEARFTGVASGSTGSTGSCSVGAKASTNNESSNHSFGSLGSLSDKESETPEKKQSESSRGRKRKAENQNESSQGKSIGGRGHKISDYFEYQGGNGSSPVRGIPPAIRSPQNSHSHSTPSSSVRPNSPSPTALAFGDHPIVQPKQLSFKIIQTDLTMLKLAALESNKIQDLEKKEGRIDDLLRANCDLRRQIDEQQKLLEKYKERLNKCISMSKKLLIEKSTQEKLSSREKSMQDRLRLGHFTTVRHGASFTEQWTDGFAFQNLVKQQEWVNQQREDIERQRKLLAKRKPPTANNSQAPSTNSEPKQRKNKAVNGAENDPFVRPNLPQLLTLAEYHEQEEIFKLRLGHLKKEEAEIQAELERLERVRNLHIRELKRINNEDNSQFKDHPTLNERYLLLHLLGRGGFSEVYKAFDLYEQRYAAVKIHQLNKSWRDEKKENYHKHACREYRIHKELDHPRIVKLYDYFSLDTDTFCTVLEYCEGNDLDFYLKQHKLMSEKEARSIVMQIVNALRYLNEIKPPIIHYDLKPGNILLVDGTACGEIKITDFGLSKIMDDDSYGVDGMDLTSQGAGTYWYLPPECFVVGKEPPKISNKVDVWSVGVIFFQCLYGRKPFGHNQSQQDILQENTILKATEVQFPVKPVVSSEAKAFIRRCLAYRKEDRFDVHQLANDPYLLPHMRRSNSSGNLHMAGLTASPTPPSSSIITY

AMPK(A2/B2/G2) = biological target: T6, AMPK(A2/B2/G2) (Homo sapiens, UniProt P54646); experiment: Kinase panel assay (radiolabelled); assay type: biochemical; conditions: 30 μM compound, ATP 10 μM; duplicates Data 1/Data 2
T6 construct: purchased Reaction Biology Corp

MST3/STK24 [2] = biological target: T3, MST3/STK24; experiment: Kinase panel assay (radiolabelled); assay type: biochemical; conditions: ATP 10 μM
mTOR/FRAP1 = biological target: T7, mTOR/FRAP1 (Homo sapiens, UniProt P42345); experiment: Kinase panel assay (radiolabelled); assay type: biochemical; conditions: 30 μM compound, ATP 10 μM, duplicates Data 1/Data 2
T7 construct: purchased Reaction Biology Corp

TRKC (G623E) = biological target: T8, TRKC (G623E) (Homo sapiens, UniProt Q16288, G623E); experiment: Kinase panel assay (radiolabelled); assay type: biochemical; conditions: 30 μM compound, ATP 10 μM, duplicates Data 1/Data 2
T8 construct: purchased Reaction Biology Corp

TRKC (G623R) = biological target: T9, TRKC (G623R) (Homo sapiens, UniProt Q16288, G623R); experiment: Kinase panel assay (radiolabelled); assay type: biochemical; conditions: 30 μM compound, ATP 10 μM, duplicates Data 1/Data 2
T9 construct: purchased Reaction Biology Corp

ZIPK/DAPK3 = biological target: T10, ZIPK/DAPK3 (Homo sapiens, UniProt O43293); experiment: Kinase panel assay (radiolabelled); assay type: biochemical; conditions: ATP 10 μM
T10 construct: purchased Reaction Biology Corp

PI4Kb = biological target: T11, PI4Kb (Homo sapiens, UniProt Q9UBF8); experiment: Kinase panel assay (lipid kinase); assay type: biochemical; conditions: 30 μM compound, ATP 10 μM, duplicates Data 1/Data 2
T11 construct: purchased Reaction Biology Corp

COX-2 = experiment: Western blot of COX-2 in LPS-induced BV-2 cells; assay type: cell-based, murine; conditions: 0.01 to 1 uM
Method: Western blot analysis was performed to see the protein expression of the iNOS and COX-2 in the BV2 cells. BV2 cells were seeded in a 6 well plate at the density of 6 × 10^5 cells/well overnight and cells were treated as mentioned earlier in the cell treatment section and this time treatment was performed for 6 h only. After 6 h, cells were harvested and lysed with lysis buffer containing (RIPA, protease inhibitor & phosphatase inhibitor), protein estimation was performed using biorad assay and the 30 µg of total protein was separated by 8% SDS-PAGE gel electrophoresis, transferred to nitrocellulose membranes, and incubated with primary antibodies against tubulin, iNOS, COX-2, and α-tubulin. […] membranes were incubated with horseradish peroxidase-conjugated secondary antibodies, and protein bands were visualized using ECL Western Blotting Detection Reagents (Amersham Pharmacia Biotech). Quantitative analysis of the protein bands was quantified using Image Master 2D Elite software (version 3.1, Amersham Pharmacia Biotech).

[3] = 30 μM compound, duplicates Data 1/Data 2
[4] = 30 μM compound, duplicates Data 1/Data 2, read-out: % Enzyme Activity (relative to DMSO controls)
[5] = 30 μM, average ± SD, read-out: % Residual Activity at 30 μM
[6] = read-out: % Enzyme Activity (relative to DMSO controls)

T10 sequence (O43293 whole entry): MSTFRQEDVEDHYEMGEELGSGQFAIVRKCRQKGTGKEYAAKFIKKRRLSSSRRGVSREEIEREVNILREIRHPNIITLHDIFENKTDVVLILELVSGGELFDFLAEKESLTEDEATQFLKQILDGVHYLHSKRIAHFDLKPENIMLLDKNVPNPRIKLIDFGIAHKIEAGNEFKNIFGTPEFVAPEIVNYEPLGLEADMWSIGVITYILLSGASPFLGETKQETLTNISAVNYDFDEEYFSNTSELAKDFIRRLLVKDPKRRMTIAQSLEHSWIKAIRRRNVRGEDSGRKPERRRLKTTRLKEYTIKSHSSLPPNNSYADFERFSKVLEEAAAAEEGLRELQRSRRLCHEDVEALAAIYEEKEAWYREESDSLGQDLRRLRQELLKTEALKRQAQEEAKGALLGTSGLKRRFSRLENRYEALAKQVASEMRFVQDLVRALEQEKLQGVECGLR
T3 sequence (Q9Y6E0 whole entry): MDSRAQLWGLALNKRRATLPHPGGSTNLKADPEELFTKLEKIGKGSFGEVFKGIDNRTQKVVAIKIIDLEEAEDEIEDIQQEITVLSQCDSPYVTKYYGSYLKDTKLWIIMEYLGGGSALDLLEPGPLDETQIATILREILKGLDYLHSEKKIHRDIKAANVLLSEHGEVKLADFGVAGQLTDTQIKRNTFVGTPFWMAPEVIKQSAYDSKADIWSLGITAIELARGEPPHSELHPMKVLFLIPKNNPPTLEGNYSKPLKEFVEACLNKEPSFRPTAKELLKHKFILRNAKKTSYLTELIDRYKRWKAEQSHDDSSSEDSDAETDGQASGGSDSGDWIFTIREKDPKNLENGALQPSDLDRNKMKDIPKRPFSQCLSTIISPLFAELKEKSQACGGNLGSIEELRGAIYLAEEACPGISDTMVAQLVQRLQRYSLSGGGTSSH
T11 sequence (Q9UBF8 whole entry): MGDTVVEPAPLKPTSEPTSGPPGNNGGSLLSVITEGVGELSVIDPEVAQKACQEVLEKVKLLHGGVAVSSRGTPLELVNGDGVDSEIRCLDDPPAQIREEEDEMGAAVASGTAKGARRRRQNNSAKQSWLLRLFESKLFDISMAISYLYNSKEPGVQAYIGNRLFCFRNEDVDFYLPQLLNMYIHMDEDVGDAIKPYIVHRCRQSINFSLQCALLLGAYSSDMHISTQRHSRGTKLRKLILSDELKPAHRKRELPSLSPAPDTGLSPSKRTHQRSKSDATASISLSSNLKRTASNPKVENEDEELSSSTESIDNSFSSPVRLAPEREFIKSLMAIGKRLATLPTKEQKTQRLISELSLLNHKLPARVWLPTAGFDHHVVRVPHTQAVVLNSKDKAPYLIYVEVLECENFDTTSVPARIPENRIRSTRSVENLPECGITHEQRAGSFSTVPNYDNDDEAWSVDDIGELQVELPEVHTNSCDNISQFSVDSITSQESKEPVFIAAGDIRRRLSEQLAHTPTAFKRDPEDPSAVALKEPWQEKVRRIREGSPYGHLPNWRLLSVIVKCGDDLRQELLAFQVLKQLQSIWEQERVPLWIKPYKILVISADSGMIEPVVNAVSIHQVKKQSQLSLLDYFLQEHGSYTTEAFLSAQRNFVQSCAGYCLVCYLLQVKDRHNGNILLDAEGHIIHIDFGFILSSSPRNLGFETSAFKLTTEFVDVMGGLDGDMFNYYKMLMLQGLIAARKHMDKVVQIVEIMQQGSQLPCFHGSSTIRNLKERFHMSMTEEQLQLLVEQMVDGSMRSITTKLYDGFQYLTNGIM
T9 sequence (Q16288 32-839 G623R): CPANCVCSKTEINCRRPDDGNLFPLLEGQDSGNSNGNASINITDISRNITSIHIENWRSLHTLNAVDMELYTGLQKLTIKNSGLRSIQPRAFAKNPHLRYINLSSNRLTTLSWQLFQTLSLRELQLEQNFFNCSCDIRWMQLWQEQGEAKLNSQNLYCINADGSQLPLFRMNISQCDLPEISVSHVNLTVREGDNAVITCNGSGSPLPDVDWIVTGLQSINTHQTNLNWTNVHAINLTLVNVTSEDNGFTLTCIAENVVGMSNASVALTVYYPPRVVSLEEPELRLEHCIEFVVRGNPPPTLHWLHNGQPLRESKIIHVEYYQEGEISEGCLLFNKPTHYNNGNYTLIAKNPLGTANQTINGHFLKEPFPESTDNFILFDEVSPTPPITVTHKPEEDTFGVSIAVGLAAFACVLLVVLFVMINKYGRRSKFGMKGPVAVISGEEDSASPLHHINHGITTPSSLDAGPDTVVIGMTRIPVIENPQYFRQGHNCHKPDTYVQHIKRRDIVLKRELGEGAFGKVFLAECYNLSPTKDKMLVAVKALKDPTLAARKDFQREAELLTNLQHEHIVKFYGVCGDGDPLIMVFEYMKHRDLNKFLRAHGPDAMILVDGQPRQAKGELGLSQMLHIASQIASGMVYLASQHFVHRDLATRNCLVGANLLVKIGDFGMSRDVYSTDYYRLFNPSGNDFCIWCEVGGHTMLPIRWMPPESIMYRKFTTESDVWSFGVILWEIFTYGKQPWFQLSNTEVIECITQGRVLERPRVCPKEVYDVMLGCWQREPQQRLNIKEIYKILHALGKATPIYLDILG
T8 sequence (Q16288 32-839 G623E): as the sequence (Q16288 32-839 G623R) above, with R592E counted along it
T1 sequence (Q00526 whole entry): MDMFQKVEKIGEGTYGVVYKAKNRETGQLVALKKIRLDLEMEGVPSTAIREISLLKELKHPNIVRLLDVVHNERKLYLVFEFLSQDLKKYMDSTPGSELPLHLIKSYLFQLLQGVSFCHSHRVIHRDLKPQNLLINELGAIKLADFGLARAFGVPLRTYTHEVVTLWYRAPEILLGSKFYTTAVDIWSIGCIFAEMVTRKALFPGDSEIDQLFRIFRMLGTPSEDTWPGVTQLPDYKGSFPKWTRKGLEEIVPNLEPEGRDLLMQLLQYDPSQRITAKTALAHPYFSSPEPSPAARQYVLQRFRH
T1 sequence (P24864 whole entry partner): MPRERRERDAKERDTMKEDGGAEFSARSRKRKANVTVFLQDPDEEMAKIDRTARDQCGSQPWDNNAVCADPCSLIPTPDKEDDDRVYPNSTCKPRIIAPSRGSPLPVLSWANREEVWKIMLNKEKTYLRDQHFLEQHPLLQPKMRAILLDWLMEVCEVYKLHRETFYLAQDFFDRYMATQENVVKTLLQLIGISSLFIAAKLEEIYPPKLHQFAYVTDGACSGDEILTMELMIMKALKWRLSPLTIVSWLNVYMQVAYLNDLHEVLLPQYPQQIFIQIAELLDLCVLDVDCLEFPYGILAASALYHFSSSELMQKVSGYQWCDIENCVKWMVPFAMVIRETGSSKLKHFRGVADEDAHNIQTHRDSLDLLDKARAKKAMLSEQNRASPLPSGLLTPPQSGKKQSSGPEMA
T2 sequence (P53779 whole entry): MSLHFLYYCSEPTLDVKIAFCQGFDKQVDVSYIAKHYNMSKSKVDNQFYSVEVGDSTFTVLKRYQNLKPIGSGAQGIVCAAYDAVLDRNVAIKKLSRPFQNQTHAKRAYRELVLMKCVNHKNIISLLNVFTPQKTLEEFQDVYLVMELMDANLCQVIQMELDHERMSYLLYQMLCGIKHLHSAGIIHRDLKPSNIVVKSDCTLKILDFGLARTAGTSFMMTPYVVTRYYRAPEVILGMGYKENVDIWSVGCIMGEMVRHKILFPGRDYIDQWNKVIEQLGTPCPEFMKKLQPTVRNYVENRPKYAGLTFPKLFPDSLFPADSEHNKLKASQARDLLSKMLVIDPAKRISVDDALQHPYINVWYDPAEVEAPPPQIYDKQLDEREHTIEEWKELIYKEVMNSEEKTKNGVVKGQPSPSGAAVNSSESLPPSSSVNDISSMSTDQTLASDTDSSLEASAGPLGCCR

Q: Which “% Residual Activity at 30 μM” value (CDK3/cyclin E) does the source give for `O=C1C=CC2(C=C1)OCC(Cc1cc(C(F)(F)F)cc(C(F)(F)F)c1)C(=O)N2c1ccccc1` (racemic) [1c] here?
A: The value was 59.3 ± 1.2%.

Q: What about the “% Residual Activity at 30 μM” value (JNK3) of the same compound?
A: Its value is 72.0 ± 2.0%.

Q: And the “% Residual Activity at 30 μM” value (MST3/STK24 [1])?
A: Its value is 58.3 ± 0.7%.

Q: What about the “% Residual Activity at 30 μM” value (RIPK5) of the same compound?
A: The value was 59.3 ± 1.0%.

Q: And the “% Residual Activity at 30 μM” value (TLK1)?
A: The value was 58.0 ± 0.9%.

Q: Which “% Enzyme Activity (relative to DMSO controls)” value (AMPK(A2/B2/G2)) does the source give for `O=C1C=CC2(C=C1)OCC(Cc1cn(-c3cccc(Cl)c3)nn1)C(=O)N2c1ccccc1` (stereo not drawn) [2d, 3-((1-(3-Chlorophenyl)-1H-1,2,3-triazol-4-yl)methyl)-5-phenyl-1-oxa-5-azaspiro[5.5]undeca-7,10-diene-4,9-dione] here?
A: Its value is 111.36%.

Q: And the “% Enzyme Activity (relative to DMSO controls)” value (MST3/STK24 [2]; [3])?
A: The value was 89.43%.

Q: And the remaining activity at 30 µM (MST3/STK24 [2]; [4])?
A: Its remaining activity at 30 µM is 94.2%.

Q: What about the remaining activity at 30 µM (MST3/STK24 [2]; [5]) of the same compound?
A: Its remaining activity at 30 µM is 91.8 ± 3.4%.

Q: What about the “% Enzyme Activity (relative to DMSO controls)” value (mTOR/FRAP1) of the same compound?
A: The value was 96.09%.

Q: And the remaining activity at 30 µM (mTOR/FRAP1; [6])?
A: The remaining activity at 30 µM was 103%.

Q: And the “% Enzyme Activity (relative to DMSO controls)” value (TRKC (G623E))?
A: Its value is 114.78%.

Q: What about the remaining activity at 30 µM (TRKC (G623E); [6]) of the same compound?
A: Its remaining activity at 30 µM is 118%.

Q: What about the “% Enzyme Activity (relative to DMSO controls)” value (TRKC (G623R)) of the same compound?
A: The value was 90.32%.

Q: What about the remaining activity at 30 µM (TRKC (G623R); [6]) of the same compound?
A: The remaining activity at 30 µM was 92.1%.

Q: What about the “% Enzyme Activity (relative to DMSO controls)” value (ZIPK/DAPK3; [3]) of the same compound?
A: Its value is 86.95%.

Q: What about the remaining activity at 30 µM (ZIPK/DAPK3; [4]) of the same compound?
A: The remaining activity at 30 µM was 88.8%.

Q: What about the remaining activity at 30 µM (ZIPK/DAPK3; [5]) of the same compound?
A: Its remaining activity at 30 µM is 87.9 ± 1.3%.

Q: What about the “% Enzyme Activity (relative to DMSO controls)” value (PI4Kb) of the same compound?
A: Its value is 81.00%.

Q: And the remaining activity at 30 µM (PI4Kb; [6])?
A: Its remaining activity at 30 µM is 81.6%.

Q: What about the “COX-2 expression level” value (COX-2) of the same compound?
A: The value was “the regulation of COX-2 showed concentration dependency”.
